Assay results from patent US11814367B2, “Inhibitors of glycogen synthase 1 (GYS1) and methods of use thereof” (Maze Therapeutics, Inc., priority 2021, dated 2023).

Legend:
[1] = target: hGYS2 enzyme (recombinant hGYS2/GN1 protein) (Homo sapiens (Human), UniProt P54840); assay: GYS2 coupled enzyme assay (PK/LDH); type: biochemical; details: geometric mean of at least 2 assay runs on separate days, read-out: Avg_IC50
How it was run: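 Read-out: NADH loss at 340 nm, read each minute for 10 min, slope normalized to controls, duplicate % inhibition fit to Hill (0–100). Enzyme: 200 nM hGYS2/GN1; substrate 2 mM UDP-glucose plus 0.2% glycogen and 2 mM G6P; pH 7.5 Tris, 2.5% DMSO.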

[2] = test system: hGYS1 enzyme / glycogen synthesis in HeLa cells; assay: GYS1 cell based assay (glycogen synthesis, Glucose-glo); parameters: species or system human; details: 24 h incubation, 20 mM glucose, geometric mean of at least 2 runs
How it was run: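 HeLa cells starved 24 h in medium containing only 1× Glutamax were plated onto compound in medium with 20 mM glucose (1% DMSO final) for 24 h, 37 °C, 5% CO2. Acid lysates were Tris-quenched, glucoamylase-digested (pH 5.3, 1 h, 37 °C) and read by Glucose-glo luminescence. IC50 came from Hill fits, as geometric mean of ≥2 runs.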

[3] = target: hGYS1 enzyme (recombinant hGYS1/GN1 protein) (Homo sapiens (Human), UniProt P13807); assay: GYS1 coupled enzyme assay (PK/LDH); type: biochemical; details: hGYS1/GN1 50 nM, UDP-Glucose 0.8 mM, G6P 1 mM; geometric mean of at least 2 runs
hGYS1 enzyme (recombinant hGYS1/GN1 protein), sequence (P13807 whole entry): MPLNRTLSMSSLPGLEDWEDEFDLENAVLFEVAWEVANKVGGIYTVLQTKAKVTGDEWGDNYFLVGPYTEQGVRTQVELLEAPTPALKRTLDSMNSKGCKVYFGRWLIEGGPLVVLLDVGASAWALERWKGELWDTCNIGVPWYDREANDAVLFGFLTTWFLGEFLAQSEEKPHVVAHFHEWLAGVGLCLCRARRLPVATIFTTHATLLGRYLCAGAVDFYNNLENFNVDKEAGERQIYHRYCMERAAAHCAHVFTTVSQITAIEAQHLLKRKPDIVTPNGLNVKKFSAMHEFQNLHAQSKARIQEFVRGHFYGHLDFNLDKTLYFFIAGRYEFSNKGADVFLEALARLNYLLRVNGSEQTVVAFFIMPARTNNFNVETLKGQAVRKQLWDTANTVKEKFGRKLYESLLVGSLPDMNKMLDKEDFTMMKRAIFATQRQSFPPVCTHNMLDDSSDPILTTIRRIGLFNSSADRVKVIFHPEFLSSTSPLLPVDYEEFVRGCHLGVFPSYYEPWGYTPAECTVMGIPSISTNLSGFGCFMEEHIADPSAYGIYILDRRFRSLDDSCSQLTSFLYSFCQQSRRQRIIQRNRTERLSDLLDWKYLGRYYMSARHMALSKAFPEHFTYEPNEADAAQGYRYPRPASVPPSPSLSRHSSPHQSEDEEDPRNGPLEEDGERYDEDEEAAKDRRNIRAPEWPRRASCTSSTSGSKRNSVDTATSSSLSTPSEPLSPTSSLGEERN
hGYS1 enzyme (recombinant hGYS1/GN1 protein), sequence (P46976 whole entry partner): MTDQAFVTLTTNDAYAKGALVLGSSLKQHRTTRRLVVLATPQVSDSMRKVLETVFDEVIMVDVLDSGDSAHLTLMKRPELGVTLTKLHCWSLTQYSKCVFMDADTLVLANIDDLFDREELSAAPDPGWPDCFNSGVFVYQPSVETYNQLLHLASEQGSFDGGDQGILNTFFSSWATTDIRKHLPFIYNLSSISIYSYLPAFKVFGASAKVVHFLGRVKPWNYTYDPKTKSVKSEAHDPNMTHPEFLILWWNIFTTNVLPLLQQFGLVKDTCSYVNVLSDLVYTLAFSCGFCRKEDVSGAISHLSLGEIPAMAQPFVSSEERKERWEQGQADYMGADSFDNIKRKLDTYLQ

hGYS2 enzyme (recombinant hGYS2/GN1 protein), sequence (P54840 whole entry): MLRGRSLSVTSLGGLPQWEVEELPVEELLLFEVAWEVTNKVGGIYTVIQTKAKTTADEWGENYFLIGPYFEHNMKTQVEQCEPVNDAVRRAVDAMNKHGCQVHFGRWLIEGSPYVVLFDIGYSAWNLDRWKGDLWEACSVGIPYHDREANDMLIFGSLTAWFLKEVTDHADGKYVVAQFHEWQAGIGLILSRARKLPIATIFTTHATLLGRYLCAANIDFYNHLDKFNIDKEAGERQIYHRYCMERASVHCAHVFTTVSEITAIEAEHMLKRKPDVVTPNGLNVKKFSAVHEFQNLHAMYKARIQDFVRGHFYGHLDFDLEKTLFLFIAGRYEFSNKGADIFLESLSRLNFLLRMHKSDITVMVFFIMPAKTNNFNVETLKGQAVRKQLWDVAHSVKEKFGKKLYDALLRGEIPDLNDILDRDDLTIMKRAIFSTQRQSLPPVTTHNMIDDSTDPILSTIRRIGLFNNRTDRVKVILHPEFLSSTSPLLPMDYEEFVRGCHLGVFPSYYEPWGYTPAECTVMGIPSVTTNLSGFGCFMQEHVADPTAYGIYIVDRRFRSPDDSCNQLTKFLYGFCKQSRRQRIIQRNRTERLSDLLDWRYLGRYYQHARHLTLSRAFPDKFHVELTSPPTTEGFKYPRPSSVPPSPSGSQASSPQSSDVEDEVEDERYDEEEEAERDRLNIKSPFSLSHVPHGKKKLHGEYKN
hGYS2 enzyme (recombinant hGYS2/GN1 protein), sequence (P46976 whole entry partner): as the sequence (P46976 whole entry partner) above

SMILES	IC50 [1] [nM]	IC50 ([2]; Homo sapiens, HeLa, 24 h) [nM]	IC50 [3] [nM]	IC50 [2] [nM]
O=C(N[C@@H](c1ccccc1)c1ccc(C2CC(F)(F)C2)cn1)[C@@H]1C[C@@H](F)CN1C(=O)Cc1[nH]nnc1C(F)(F)F [Compound 542, (2S,4R)-N-[(S)-[5-(3,3-difluorocyclobutyl)pyridin-2-yl] (phenyl)methyl]-4-fluoro-1-{2-[4-(trifluoromethyl)-1H-1,2,3-triazol-5-yl]acetyl} pyrrolidine-2-carboxamide]	> 100000	1480	11	–
CNC(=O)NCC(=O)N1C[C@H](F)C[C@H]1C(=O)N[C@@H](c1ccccc1)c1ccc(C(C)C)c(F)n1 [Compound 395, (2S,4R)-4-fluoro-N-[(S)-[6-fluoro-5-(propan-2-yl)pyridin-2-yl](phenyl)methyl]-1-{2-[(methylcarbamoyl)amino]acetyl}pyrrolidine-2-carboxamide]	> 100000	240	8	–
CC(C)c1ccc([C@@H](NC(=O)[C@@H]2C[C@@H](F)CN2C(=O)Cn2cnc3ccccc32)c2ccccc2)nc1F [Compound 389, (2S,4R)-1-[2-(1H-1,3-benzodiazol-1-yl)acetyl]-4-fluoro-N-[(S)-[6-fluoro-5-(propan-2-yl)pyridin-2-yl](phenyl)methyl] pyrrolidine-2-carboxamide]	> 90300	50	4	–
CC1(c2ccc([C@@H](NC(=O)[C@@H]3C[C@@H](F)CN3C(=O)Cn3nnc4ccccc43)c3ccccc3)cc2F)CC1 [Compound 575, (2S,4R)-1-[2-(1H-1,2,3-benzotriazol-1-yl)acetyl]-4-fluoro-N-[(S)-[3-fluoro-4-(1-methylcyclopropyl)phenyl](phenyl)methyl]pyrrolidine-2-carboxamide]	> 100000	2090	119	–
O=C(N[C@@H](c1ccccc1)c1ccc(C2CC2)c(F)c1)[C@@H]1C[C@@H](F)CN1C(=O)Cn1nnc2ccccc21 [Compound 450, (2S,4R)-1-[2-(1H-1,2,3-benzotriazol-1-yl)acetyl]-N-[(S)-(4-cyclopropyl-3-fluorophenyl)(phenyl)methyl]-4-fluoropyrrolidine-2-carboxamide]	> 100000	1730	94	–
C[C@H](NC(=O)N(C)C)C(=O)N1C[C@H](F)C[C@H]1C(=O)N[C@@H](c1ccccc1)c1ccc(C2CC2)c(F)n1 [Compound 310, (2S,4R)-N-[(S)-(5-cyclopropyl-6-fluoropyridin-2-yl)(phenyl)methyl]-1-[(2S)-2-[(dimethylcarbamoyl)amino]propanoyl]-4-fluoropyrrolidine-2-carboxamide]	> 100000	1290	75	–
CCC(C)c1ccc(C(NC(=O)[C@@H]2C[C@@H](F)CN2C(=O)Cc2cnn[nH]2)c2ccccc2)cc1F (single isomer, unassigned) [Compound 676, (2S,4R)-N-[(R) or (S)-{4-[(2R) or (2S)-butan-2-yl]-3-fluorophenyl}(phenyl)methyl]-4-fluoro-1-[2-(1H-1,2,3-triazol-5-yl)acetyl]pyrrolidine-2-carboxamide]	> 100000	–	554	14000
Cn1c(CC(=O)N2C[C@H](F)C[C@H]2C(=O)N[C@@H](c2ccccc2)c2ccc(C3(C)CC3)c(F)c2)cc2ccccc21 [Compound 561, (2S,4R)-4-fluoro-N-[(S)-[3-fluoro-4-(1-methylcyclopropyl)phenyl](phenyl)methyl]-1-[2-(1-methyl-1H-indol-2-yl)acetyl]pyrrolidine-2-carboxamide]	> 100000	870	36	–
O=C(N[C@@H](c1ccccc1)c1ccc(C2CC(F)(F)C2)c(F)n1)[C@@H]1C[C@@H](F)CN1C(=O)Cc1cnn[nH]1 [Compound 508, (2S,4R)-N-[(S)-[5-(3,3-difluorocyclobutyl)-6-fluoropyridin-2-yl](phenyl)methyl]-4-fluoro-1-[2-(1H-1,2,3-triazol-5-yl)acetyl]pyrrolidine-2-carboxamide]	> 100000	310	21	–
O=C(NC(c1ccccc1)c1ccc(C2CC2)cn1)[C@@H]1C[C@@H](F)CN1C(=O)Cc1cnn[nH]1 (single isomer, unassigned) [Compound 497, (2S,4R)-1-(2-(1H-1,2,3-triazol-5-yl)acetyl)-N—((S) or (R)-(5-cyclopropylpyridin-2-yl)(phenyl)methyl)-4-fluoropyrrolidine-2-carboxamide]	> 100000	> 5670	369	–
CC(C)c1ccc(C(NC(=O)[C@@H]2C[C@@H](F)CN2C(=O)Cc2ncco2)c2ccn[nH]2)nc1F (single isomer, unassigned) [Compound 630, (2S,4R)-4-fluoro-N-[(S) or (R)-[6-fluoro-5-(propan-2-yl)pyridin-2-yl](1H-pyrazol-5-yl)methyl]-1-[2-(1,3-oxazol-2-yl)acetyl]pyrrolidine-2-carboxamide]	> 100000	2130	92	–
CC(C)c1ccc([C@@H](NC(=O)[C@@H]2C[C@@H](F)CN2C(=O)Cc2ccc[nH]c2=O)c2ccccc2)nc1F [Compound 793, (2S,4R)-4-fluoro-N-[(S)-[6-fluoro-5-(propan-2-yl)pyridin-2-yl](phenyl)methyl]-1-[2-(2-oxo-1,2-dihydropyridin-3-yl)acetyl]pyrrolidine-2-carboxamide]	> 100000	580	12	–
Cc1nn(C)c(C)c1CC(=O)N1C[C@H](F)C[C@H]1C(=O)N[C@@H](c1ccccc1)c1ccc(C(C)C)cc1 [Compound 136, (2S,4R)-4-fluoro-N-[(S)-phenyl[4-(propan-2-yl)phenyl]methyl]-1-[2-(1,3,5-trimethyl-1H-pyrazol-4-yl)acetyl]pyrrolidine-2-carboxamide]	> 100000	170	9	–
CN1C(=O)C(CC(=O)N2C[C@H](F)C[C@H]2C(=O)N[C@@H](c2ccccc2)c2ccc(C3(C)CC3)c(F)c2)c2ccccc21 (stereo partly drawn) [Compound 577, (2S,4R)-4-fluoro-N-[(S)-[3-fluoro-4-(1-methylcyclopropyl)phenyl](phenyl)methyl]-1-[2-(1-methyl-2-oxo-2,3-dihydro-1H-indol-3-yl)acetyl]pyrrolidine-2-carboxamide]	41200	3980	478	–
Cc1nnn(CC(=O)N2C[C@H](F)C[C@H]2C(=O)N[C@@H](c2ccccc2)c2ccc(C3CC3)c(F)c2)n1 [Compound 433, (2S,4R)-N-[(S)-(4-cyclopropyl-3-fluorophenyl)(phenyl)methyl]-4-fluoro-1-[2-(5-methyl-2H-1,2,3,4-tetrazol-2-yl)acetyl]pyrrolidine-2-carboxamide]	> 100000	1480	91	–
CC(C)c1ccc([C@@H](NC(=O)[C@@H]2C[C@@H](F)CN2C(=O)Cn2ncc(N3CCC3)n2)c2ccccc2)nc1 [Compound 276, (2S,4R)-1-{2-[4-(azetidin-1-yl)-2H-1,2,3-triazol-2-yl]acetyl}-4-fluoro-N-[(S)-phenyl[5-(propan-2-yl)pyridin-2-yl]methyl]pyrrolidine-2-carboxamide]	> 100000	400	20	–
